The source of these data is US20040082635A1, “Fused cyclic compounds and medicinal use thereof” (priority 2001, published 2004).

pIC50: −log10 of the molar value. Structures can show the parent of a compound that is named as a salt.

The test deals with T1, HCV polymerase (Hepatitis C virus genotype 1b, UniProt P26663).
T1 construct: a region encoding NS5B (591 amino acids; J Virol 1991 Mar, 65(3), 1105-13) was amplified by PCR; 6 His (N); made in house; host or cells: Escherichia coli
As to the kind of experiment: biochemical. The note with it: read-out: HCV polymerase inhibitory activity IC50.

T1 sequence (P26663 2420-3010): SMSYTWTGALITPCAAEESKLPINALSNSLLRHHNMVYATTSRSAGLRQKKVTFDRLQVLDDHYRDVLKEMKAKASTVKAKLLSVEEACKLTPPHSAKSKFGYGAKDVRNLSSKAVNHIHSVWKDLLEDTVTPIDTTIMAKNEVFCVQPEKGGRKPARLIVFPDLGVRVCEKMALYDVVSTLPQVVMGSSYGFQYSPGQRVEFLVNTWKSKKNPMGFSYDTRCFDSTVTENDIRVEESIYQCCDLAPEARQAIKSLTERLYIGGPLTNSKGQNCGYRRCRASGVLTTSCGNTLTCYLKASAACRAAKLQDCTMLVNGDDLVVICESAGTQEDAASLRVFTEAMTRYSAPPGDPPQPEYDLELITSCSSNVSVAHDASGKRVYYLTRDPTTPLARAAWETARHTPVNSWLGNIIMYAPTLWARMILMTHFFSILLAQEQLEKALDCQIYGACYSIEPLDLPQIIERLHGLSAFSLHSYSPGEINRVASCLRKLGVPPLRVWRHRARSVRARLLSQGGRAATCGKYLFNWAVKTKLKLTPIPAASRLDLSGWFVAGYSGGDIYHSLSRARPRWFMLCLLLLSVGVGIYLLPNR

`CSc1ccc(-c2ccc(Cl)cc2COc2ccc(-c3nc4cc(C(=O)O)ccc4n3C3CCCCC3)cc2)cc1` [Example 166, 2-{4-[3-chloro-6-(4-methylthiophenyl)benzyloxy]phenyl}-1-cyclohexylbenzimidazole-5-carboxylic acid]: the pIC50 is 7.26.

`O=C(O)c1ccc2c(c1)nc(-c1cc(C(c3cccc(F)c3)c3cccc(F)c3)c(O)cc1F)n2C1CCCCC1` [Example 440, 2-{5-[bis(3-fluorophenyl)methyl]-2-fluoro-4-hydroxyphenyl}-1-cyclohexylbenzimidazole-5-carboxylic acid]: the pIC50 was 7.15.

Take `CN(C)C(=O)c1ccc(-c2ccncc2)c(COc2ccc(-c3nc4cc(C(=O)O)ccc4n3C3CCCCC3)cc2)c1` [Example 320, 2-{4-[5-dimethylaminocarbonyl-2-(4-pyridyl)benzyloxy]phenyl}-1-cyclohexylbenzimidazole-5-carboxylic acid dihydrochloride]: the pIC50 is 7.44.

As to `O=C(O)c1ccc2c(c1)nc(-c1ccc(OCc3cc(C(=O)NCc4ccccn4)ccc3-c3ccc(Cl)cc3)cc1)n2C1CCCCC1` [Example 323, 2-{4-[2-(4-chlorophenyl)-5-{N-(2-pyridylmethyl)carbamoyl}-benzyloxy]phenyl}-1-cyclohexylbenzimidazole-5-carboxylic acid dihydrochloride], the pIC50 is 7.74.

For the molecule `O=C(O)c1ccc2c(c1)nc(-c1ccc(OC[C@@H]3CCCN3c3ccc([N+](=O)[O-])cc3)cc1)n2C1CCCCC1` [Example 203, 1-cyclohexyl-2-{4-[{(2S)-1-(4-nitrophenyl)-2-pyrrolidinyl}-methoxy]phenyl}benzimidazole-5-carboxylic acid], the pIC50 was 7.20.

Take `CC(C)NC(=O)c1ccc(-c2ccc(F)c(Cl)c2)c(COc2ccc(-c3nc4cc(C(=O)O)ccc4n3C3CCCCC3)c(F)c2)c1` [Example 399, 2-{4-[2-(3-chloro-4-fluorophenyl)-5-(isopropylcarbamoyl)-benzyloxy]-2-fluorophenyl}-1-cyclohexylbenzimidazole-5-carboxylic acid hydrochloride]: the pIC50 was 7.49.

On to `O=C(O)c1ccc2c(c1)nc(-c1ccc(OC[C@@H]3CCCN3Cc3ccccc3)cc1)n2C1CCCCC1` [Example 165, 2-{4-[{(2S)-1-benzyl-2-pyrrolidinyl}methoxy]phenyl}-1-cyclohexyl-benzimidazole-5-carboxylic acid hydrochloride], for which the pIC50 is 6.24.

As to `NC(=O)c1ccc(-c2ccc(Cl)cc2)c(COc2ccc(-c3nc4cc(C(=O)O)ccc4n3C3CCCCC3)c(F)c2)c1` [Example 270, 2-{4-[3-carbamoyl-6-(4-chlorophenyl)benzyloxy]-2-fluorophenyl}-1cyclohexylbenzimidazole-5-carboxylic acid hydrochloride], the pIC50 is 7.92.

Consider `COc1ccc(-c2ccc(Cl)cc2)c(COc2ccc(-c3nc4cc(C(=O)O)cnc4n3C3CCCCC3)cc2)c1` [Example 701, 2-{4-[2-(4-chlorophenyl)-5-methoxybenzyloxy]phenyl}-3-cyclohexyl-3H-imidazo[4,5-b]pyridine-6-carboxylic acid], for which the pIC50 is 7.28.

In the case of `COc1ccc(-c2ccc(Cl)cc2)c(COc2ccc(-c3nc4cc(S(=O)(=O)O)ccc4n3C3CCCCC3)cc2)c1` [Example 257, 2-{4-[2-(4-chlorophenyl)-5-methoxybenzyloxy]phenyl}-1-cyclohexylbenzimidazole-5-sulfonic acid], the pIC50 is 7.13.

As for `CNC(=O)c1ccc(-c2ccc(Cl)cc2)c(COc2ccc(-c3nc4cc(C(=O)OC)ccc4n3C3CCCCC3)c(F)c2)c1` [Example 314, methyl 2-{4-[2-(4-chlorophenyl)-5-(methylcarbamoyl)benzyloxy]-2-fluorophenyl}-1-cyclohexylbenzimidazole-5-carboxylate], the pIC50 is 7.01.

As for `O=C(O)c1ccc(COc2ccc(-c3nc4cc(C(=O)O)ccc4n3C3CCCC3)cc2)cc1` [Example 44, 2-[4-(4-carboxybenzyloxy)phenyl]-1-cyclopentylbenzimidazole-5-carboxylic acid], the pIC50 is 6.02.

As to `O=C(O)c1ccc2c(c1)nc(-c1ccc(OCc3cc(N4CCCC4=O)c(F)cc3-c3ccc(Cl)cc3)cc1F)n2C1CCCCC1` [Example 454, 2-[4-{2-(4-chlorophenyl)-4-fluoro-5-(2-oxopyrrolidin-1-yl)benzyloxy}-2-fluorophenyl]-1-cyclohexylbenzimidazole-5-carboxylic acid hydrochloride], the pIC50 was 7.89.

With `Cc1cnc(-c2ccc(Br)c(COc3ccc(-c4nc5cc(C(=O)O)ccc5n4C4CCCCC4)cc3)c2)o1` [Example 363, 2-{4-[2-bromo-5-(5-methyloxazol-2-yl)benzyloxy]phenyl}-1-cyclohexylbenzimidazole-5-carboxylic acid hydrochloride], the pIC50 was 6.96.

On to `COc1ccc(-c2ccc(C(=O)O)cc2)c(COc2ccc(-c3nc4cc(C(=O)O)ccc4n3C3CCCCC3)cc2)c1` [Example 306, 2-{4-[2-(4-carboxyphenyl)-5-methoxybenzyloxy]phenyl}-1-cyclohexylbenzimidazole-5-carboxylic acid], for which the pIC50 is 7.89.

Consider `CC(C)CC(=O)c1ccc(-c2ccc(Cl)cc2)c(COc2ccc(-c3nc4cc(C(=O)O)ccc4n3C3CCCCC3)cc2)c1` [Example 346, 2-{4-[2-(4-chlorophenyl)-5-(isobutylcarbonyl)benzyloxy]phenyl}-1-cyclohexylbenzimidazole-5-carboxylic acid], for which the pIC50 is 7.60.

Regarding `CN(C)C(=O)c1ccc(-c2ccc(C(F)(F)F)cc2)c(COc2ccc(-c3nc4cc(C(=O)O)ccc4n3C3CCCCC3)cc2)c1` [Example 266, 1-cyclohexyl-2-{4-[3-dimethylcarbamoyl-6-(4-trifluoromethylphenyl)benzyloxy]phenyl}benzimidazole-5-carboxylic acid hydrochloride], the pIC50 is 7.74.

With `CC1CCN(C(=O)c2ccc(-c3ccc(Cl)cc3)c(COc3ccc(-c4nc5cc(C(=O)O)ccc5n4C4CCCCC4)cc3)c2)CC1` [Example 341, 2-{4-[2-(4-chlorophenyl)-5-(4-methylpiperidin-1-ylcarbonyl)benzyloxy]phenyl}-1-cyclohexylbenzimidazole-5-carboxylic acid hydrochloride], the pIC50 was 7.60.

Regarding `O=C(O)c1ccc2c(c1)nc(-c1ccc(OCc3cc(Cl)ccc3-c3ccc(Cl)cc3)cc1F)n2C1CCCCC1` [Example 174, 2-{4-[3-chloro-6-(4-chlorophenyl)benzyloxy]-2-fluorophenyl}-1-cyclohexylbenzimidazole-5-carboxylic acid], the pIC50 is 7.52.

`O=C(O)c1ccc2c(c1)nc(-c1ccc(OCc3ccc(C(=O)NCCO)cc3-c3ccc(Cl)cc3)cc1)n2C1CCCCC1` [Example 355, 2-{4-[2-(4-chlorophenyl)-4-{(2-hydroxyethyl)carbamoyl}-benzyloxy]phenyl}-1-cyclohexylbenzimidazole-5-carboxylic acid hydrochloride]: the pIC50 was 7.82.

Take `O=C(O)c1ccc2c(c1)nc(-c1ccc(OC[C@@H]3CCCN3C(=O)c3ccccc3)cc1)n2C1CCCCC1` [Example 194, 2-{4-[{(2S)-1-benzoyl-2-pyrrolidinyl}methoxy]phenyl}-1-cyclohexylbenzimidazole-5-carboxylic acid]: the pIC50 is 6.28.

Take `CN(C)S(=O)(=O)c1ccc(-c2ccc(Cl)cc2)c(COc2ccc(-c3nc4cc(C(=O)O)ccc4n3C3CCCCC3)cc2)c1` [Example 279, 2-{4-[2-(4-chlorophenyl)-5-dimethylsulfamoylbenzyloxy]phenyl}-1-cyclohexylbenzimidazole-5-carboxylic acid hydrochloride]: the pIC50 was 7.77.

As for `O=C(O)c1ccc2c(c1)nc(-c1ccc(Oc3ccccc3Oc3ccccc3)cc1)n2C1CCCCC1` [Example 128, 1-cyclohexyl-2-[4-(2-phenoxyphenoxy)phenyl]benzimidazole-5-carboxylic acid], the pIC50 is 6.85.

On to `CC(C)CNC(=O)c1ccc(-c2ccc(Cl)cc2)c(COc2ccc(-c3nc4cc(C(=O)O)ccc4n3C3CCCCC3)c(F)c2)c1` [Example 380, 2-{4-[2-(4-chlorophenyl)-5-(isobutylcarbamoyl)benzyloxy]-2-fluorophenyl}-1-cyclohexylbenzimidazole-5-carboxylic acid hydrochloride], for which the pIC50 was 7.64.

For `CCOC(=O)c1ccn2c(C3CCCCC3)c(-c3ccc(OCc4ccccc4)cc3)nc2c1` [Example 601, ethyl 2-(4-benzyloxyphenyl)-3-cyclohexylimidazo-[1,2-a]pyridine-7-carboxylate], the pIC50 was 6.49.

For `CN(C)C(=O)COc1ccccc1Oc1ccc(-c2nc3cc(C(=O)O)ccc3n2C2CCCCC2)cc1` [Example 191, 1-cyclohexyl-2-{4-[2-(dimethylcarbamoylmethoxy)phenoxy]-phenyl}benzimidazole-5-carboxylic acid], the pIC50 is 6.37.

Turning to `C#CCOc1cccc(Oc2ccc(-c3nc4cc(C(=O)O)ccc4n3C3CCCCC3)cc2)c1` [Example 177, 1-cyclohexyl-2-{4-[3-(2-propynyloxy)phenoxy]phenyl}benzimidazole-5-carboxylic acid], the pIC50 was 7.11.

As for `O=C(O)c1ccc2c(c1)nc(-c1ccc(OCc3cc(C(=O)NCc4cccnc4)ccc3-c3ccc(Cl)cc3)cc1)n2C1CCCCC1` [Example 322, 2-{4-[2-(4-chlorophenyl)-5-{N-(3-pyridylmethyl)carbamoyl}-benzyloxy]phenyl}-1-cyclohexylbenzimidazole-5-carboxylic acid dihydrochloride], the pIC50 is 7.80.

For `O=C(O)c1ccc2c(c1)nc(-c1ccc(OCc3cccc4ccccc34)cc1)n2C1CCCCC1` [Example 86, 1-cyclohexyl-2-[4-(1-naphthyl)methoxyphenyl]benzimidazole-5-carboxylic acid], the pIC50 is 6.89.

For the molecule `O=C(O)c1ccc2c(c1)nc(-c1ccc(OCc3cc(C(=O)N4CCCC4)ccc3-c3ccc(Cl)cc3)cc1F)n2N1CCCCC1` [Example 421, 2-{4-[2-(4-chlorophenyl)-5-(pyrrolidin-1-ylcarbonyl)benzyloxy]-2-fluorophenyl}-1-piperidinobenzimidazole-5-carboxylic acid], the pIC50 is 7.77.
